The values that follow come from patent US20110081405A1, “Zeolite Formulation And Use Thereof For The Prevention And Therapy Of Diseases Caused By Infections With Herpes Simplex Virus Type 1 And Type 2” (priority 2008, published 2011).

Data set [1] concerns HSV-2 (strain G). Kind of data set: Viral plaque inhibition assay, zeolite coincubated with HSV-2, supernatants added to cells. The data set is classed as cell-based. The following applies: keratinocytes, supernatants of HSV-2 coincubated 18 hours with 5 μg/ml zeolite or 50 μg/ml Acyclovir, Mordenite 0.1-0.5 μm, P, X, A 0.5-5 μm. How it is done: (§1) Testing of Antiviral Activities of Synthetic Zeolites by the Viral Plaque Inhibition Assay—the Antiviral Activity of Zeolites when Coincubated with HSV In Vitro
(§2) Epidermal cell cultures of fibroblasts and keratinocytes were grown in vitro from healthy skin samples, remnants from operations. Fibroblast cultures were grown in Dulbecco modified Eagle's medium (DMEM) containing Glutamax I (L-alanin-L-glutamine) and sodium pyruvate, […] and pyridoxine, supplemented with 10% fetal calf serum (FCS), 0.25 μg gentamycin and 100 UI/L penicillin. Keratinocytes are grown in a mixture of DMEM, Hams F12 in the 3:1 ratio with the addition of Glutamax I, complemented with 9% of FCS, epidermal growth factor (EGF), insulin, hydrocortisone, triiodothyronine, adenine, and antibiotics. The antiviral effect was determined on primary cells (primary fibroblasts and keratinocytes) grown in vitro from the explants of healthy skin, and also on cell lines: fibroblasts cell line MRC-5, HEp-2 cell line, and Vero cell line.
(§3) MRC-5, Vero, HEp-2, and keratinocyte cell lines were all obtained from the American Type Culture Collection-ATCC, and grown in T-75 flasks at 37° C. in a humidified incubator with 5% CO2.
(§4) HSV-1 (strain F) and HSV-2 (strain G), both obtained from the ATCC, were propagated in HEp-2 cells and their titres checked in same cells (H. Kirchner, C. Kleinicke, H. Northoff. J. Gen. Virol. 1977, 37, 647.). 0.1, 0.5, 1, 2, 4, or 5 Multiplicity of infection (MOI) of HSV-1 or HSV-2 was used to infect Vero cells, keratinocyte cell lines and MRC-5 cell lines, as described below.
(§5) Synthetic zeolites: A, Mordenite, P and X were tested in vitro for an anti HSV activity. Mordenite was used in two characteristic size of particles (0.1-0.5 μm and 0.5-5 μm) and other zeolites in 0.5-5 μm particle size. Zeolites were used in the concentrations of 5, 50, 500 ng/ml; 1, 5, 50, 100, 500 μg/ml; 1, 2, 10, 50 mg/ml in growth medium.
(§6) The ability of HSV preincubated with zeolite to infect cells permissive to infection (permissive cells) and cell lines was tested in in vitro experiments.
(§7) Viral stock containing the HSV-1 or HSV-2 (in MOI described above), diluted in a minimal volume of growth medium containing 5% FCS was used for the coincubation with zeolite for 3-20 hours at 4° C. The pH was maintained at all times to be at around 7.00. The sterile cuvettes containing zeolite+HSV were then centrifuged at 4.000 rpm/30 minutes to remove any particulate content in supernatants. Those supernatants (in 200 μl volume) were then added to the MRC-5, HEp-2, or Vero cell lines (grown in 24 well plate to 85% confluency) for 1 hour at 37° C. Parallel cultures contained cells infected with 200 μl of HSV-1 or HSV-2 under the same conditions as for the addition of supernatants (above). After one hour incubation, the growth medium containing 9% FCS was added, and cells cultivated for another 3 days (to examine for any CPE by light microscopy). Growth medium was then aspirated from the wells, and 100 μl of 0.2% crystal violet dye, diluted in phosphate buffered saline (PBS), was added to each well. After half-hour exposure to the dye, the wells were washed twice with double distilled water, air-dried, and the HSV plaques in cell cultures were counted using Olympus light microscope (magnification of 40×). The CPE produced by the infection of permissive cells was characterised by morphological changes in host cells e.g. cell rounding, swelling, detachment from the surface, formation of syncicia, plaques, caused by the increased number of newly formed viral particles. Plaques formed by HSV destroying cells were easily distinguished from unaffected cell layers.

Data set [2] has as its system HSV-1 (strain F). Briefly: Viral plaque inhibition assay, zeolite coincubated with HSV-1, supernatants added to cells. The data set is classed as cell-based. The following applies: keratinocytes, supernatants of HSV-1 coincubated 18 hours with 5 μg/ml zeolite or 50 μg/ml Acyclovir, Mordenite 0.1-0.5 μm, P, X, A 0.5-5 μm. The procedure:
as §1, §2, §3, §4, §5, §6, §7

The conditions of data set [3]: background statement; cited from earlier work.

For `Nc1nc2c(ncn2COCCO)c(=O)[nH]1` [Acyclovir, 9-[(2-hydroxyetoxy)methyl]guanine], the “decrease in percentage of number of HSV-2 plaques” value is 73% in data set [1] (0.1 MOI); 72% in data set [1] (0.5 MOI); 70% in data set [1] (1 MOI); 65% in data set [1] (2 MOI); 48% in data set [1] (4 MOI); 42% in data set [1] (5 MOI). The “decrease in number of HSV-1 plaques” value turned out to be 71 in data set [2] (0.1 MOI); 71 in data set [2] (0.5 MOI); 61 in data set [2] (1 MOI); 58 in data set [2] (2 MOI); 43 in data set [2] (4 MOI); 36 in data set [2] (5 MOI).
For `CC(=O)OCC(CCn1cnc2cnc(N)nc21)COC(C)=O` [famcyclovir], the “biavalibility of the drug” value in data set [3] is recorded as 77%.
As for `CC(C)[C@H](N)C(=O)OCCOCn1cnc2c(=O)[nH]c(N)nc21` [valacyclovir], the “biavalibility of the drug” value in data set [3] is given as 55%.
